Laboratory results: DBAASP
Values after ≈ are worked out from the molar mass of the structure shown.

Columns and labels:
Assay in all cases: ≥ marks a high value that may be exact or a test limit, other limits are often not marked, values filed in µg/mL are converted to µM
[1] = system: Acinetobacter baumannii ATCC 19606
Acinetobacter baumannii = system: Acinetobacter baumannii
[2] = system: Bacillus subtilis ATCC 6051
[3] = system: Candida albicans ATCC 90028
[4] = system: Cryptococcus neoformans ATCC 208821
[5] = system: Escherichia coli ATCC 25922
[6] = system: Klebsiella pneumoniae ATCC 13883
[7] = system: Klebsiella pneumoniae ATCC 700603
[8] = system: Klebsiella pneumoniae ATCC BAA-2146
Klebsiella pneumoniae = system: Klebsiella pneumoniae
[9] = system: Pseudomonas aeruginosa ATCC 27853
Pseudomonas aeruginosa = system: Pseudomonas aeruginosa
[10] = system: Staphylococcus aureus ATCC 43300
[11] = system: Bacillus subtilis ATCC 6633
[12] = system: Klebsiella pneumoniae ATCC 10031
[13] = system: Micrococcus luteus ATCC 10240
[14] = system: Salmonella enterica subsp. enterica serovar Typhimurium ATCC 14028
[15] = system: Shigella dysenteriae ATCC 9752
[16] = system: Staphylococcus aureus ATCC 6538P
[17] = system: Staphylococcus aureus TK784
[18] = system: Staphylococcus epidermidis ATCC 12228
[19] = system: Enterobacter cloacae 218R
[20] = system: Enterococcus faecalis ATCC 29212
[21] = system: Enterococcus faecalis W61950
[22] = system: Enterococcus faecalis f43559
[23] = system: Enterococcus faecium mic80
[24] = system: Enterococcus faecium t62764
[25] = system: Escherichia coli ESBL 63103
[26] = system: Escherichia coli ESBL 64771
[27] = system: Klebsiella pneumoniae ESBL 61962
[28] = system: Klebsiella pneumoniae ESBL 63575
[29] = system: Pseudomonas aeruginosa 198
[30] = system: Pseudomonas aeruginosa 213
Pseudomonas aeruginosa 9 = system: Pseudomonas aeruginosa 9
[31] = system: Pseudomonas aeruginosa H1027
[32] = system: Pseudomonas aeruginosa H1030
[33] = system: Pseudomonas aeruginosa LES400
[34] = system: Pseudomonas aeruginosa PAO1 H103
[35] = system: Staphylococcus aureus ATCC 25923
[36] = system: Staphylococcus aureus C623
[37] = system: Stenotrophomonas maltophilia ATCC 13637

CC[C@H](C)[C@@H]1NC(=O)CNC(=O)[C@H](CCCN=C(N)N)NC(=O)[C@H](Cc2ccc(O)cc2)NC(=O)[C@@H]2CSSC[C@H](NC1=O)C(=O)N[C@@H](C)C(=O)N[C@@H](CCCN=C(N)N)C(=O)N[C@@H](CCCN=C(N)N)C(=O)N[C@H](C(=O)N[C@@H](CCCN=C(N)N)C(=O)O)CSSC[C@H](NC(=O)[C@H](Cc1c[nH]c3ccccc13)NC(=O)[C@@H](N)CCCCN)C(=O)N[C@@H](Cc1ccccc1)C(=O)N[C@@H](CCCN=C(N)N)C(=O)N[C@@H](C(C)C)C(=O)N2 [KWCFRVCYRGICARRCR]
MIC [1]: 0.0574 µM (≈ 0.125 µg/mL)
MIC (Acinetobacter baumannii): 0.115 µM (≈ 0.25 µg/mL)
MIC [2]: 0.0276 µM (≈ 0.06 µg/mL)
MIC [3]: 1.84 µM (≈ 3.99 µg/mL)
MIC [4]: 0.23 µM (≈ 0.499 µg/mL)
MIC [5]: 0.115 µM (≈ 0.25 µg/mL)
MIC [6]: 0.115 µM (≈ 0.25 µg/mL)
MIC [7]: 0.23 µM (≈ 0.499 µg/mL)
MIC [8]: 0.23 µM (≈ 0.499 µg/mL)
MIC (Klebsiella pneumoniae): 3.68 µM (≈ 7.99 µg/mL)
MIC [9]: 0.23 µM (≈ 0.499 µg/mL)
MIC (Pseudomonas aeruginosa): 0.919 µM (≈ 2 µg/mL)
MIC [10]: 1.84 µM (≈ 3.99 µg/mL)

CC(C)C[C@H](NC(=O)[C@H](Cc1c[nH]c2ccccc12)NC(=O)[C@H](CCCCN)NC(=O)[C@H](CC(C)C)NC(=O)[C@H](CC(C)C)NC(=O)[C@H](CCCCN)NC(=O)[C@H](CCCCN)NC(=O)[C@H](CC(C)C)NC(=O)[C@H](CC(C)C)NC(=O)[C@@H](N)CCCCN)C(=O)N[C@@H](CCCCN)C(N)=O [KLLKKLLKWLK]
MIC [11]: 1.42 µM (≈ 2 µg/mL)
MIC [5]: 1.42 µM (≈ 2 µg/mL)
MIC [12]: 1.42 µM (≈ 2 µg/mL)
MIC [13]: 2.84 µM (≈ 4 µg/mL)
MIC [9]: 2.84 µM (≈ 4 µg/mL)
MIC [14]: 1.42 µM (≈ 2 µg/mL)
MIC [15]: 1.42 µM (≈ 2 µg/mL)
MIC [16]: 1.42 µM (≈ 2 µg/mL)
MIC [17]: 5.67 µM (≈ 7.99 µg/mL)
MIC [18]: 1.42 µM (≈ 2 µg/mL)

CC[C@H](C)[C@@H]1NC(=O)CNC(=O)[C@H](CCCN=C(N)N)NC(=O)[C@H](Cc2ccc(O)cc2)NC(=O)[C@@H]2CSSC[C@H](NC1=O)C(=O)N[C@@H](Cc1ccc(O)cc1)C(=O)N[C@@H](CCCN=C(N)N)C(=O)N[C@@H](CCCN=C(N)N)C(=O)N[C@H](C(=O)N[C@@H](CCCN=C(N)N)C(=O)O)CSSC[C@H](NC(=O)[C@H](Cc1c[nH]c3ccccc13)NC(=O)[C@@H](N)CCCN=C(N)N)C(=O)N[C@@H](Cc1ccccc1)C(=O)N[C@@H](CCCN=C(N)N)C(=O)N[C@@H](C(C)C)C(=O)N2 [RWCFRVCYRGICYRRCR]
MIC [1]: 0.0544 µM (≈ 0.125 µg/mL)
MIC (Acinetobacter baumannii): 0.109 µM (≈ 0.249 µg/mL)
MIC [2]: 0.0544 µM (≈ 0.125 µg/mL)
MIC [3]: 1.74 µM (≈ 3.99 µg/mL)
MIC [4]: 0.109 µM (≈ 0.249 µg/mL)
MIC [5]: 0.0544 µM (≈ 0.125 µg/mL)
MIC [6]: 0.0544 µM (≈ 0.125 µg/mL)
MIC [7]: 0.218 µM (≈ 0.499 µg/mL)
MIC [8]: 0.109 µM (≈ 0.249 µg/mL)
MIC (Klebsiella pneumoniae): 1.74 µM (≈ 3.99 µg/mL)
MIC [9]: 0.109 µM (≈ 0.249 µg/mL)
MIC (Pseudomonas aeruginosa): 0.218 µM (≈ 0.499 µg/mL)
MIC [10]: 0.435 µM (≈ 0.998 µg/mL)

CC(C)C[C@H](NC(=O)[C@H](CC(C)C)NC(=O)[C@H](CCCCN)NC(=O)[C@H](CCCCN)NC(=O)[C@H](CC(C)C)NC(=O)[C@H](Cc1c[nH]c2ccccc12)NC(=O)[C@H](CCCCN)NC(=O)[C@H](CC(C)C)NC(=O)[C@H](CC(C)C)NC(=O)[C@H](CCCCN)NC(=O)[C@@H](N)CCCCN)C(N)=O [KKLLKWLKKLL]
MIC [11]: 4.47 µM (≈ 6.3 µg/mL)
MIC [5]: 8.86 µM (≈ 12.5 µg/mL)
MIC [12]: 4.47 µM (≈ 6.3 µg/mL)
MIC [13]: 4.47 µM (≈ 6.3 µg/mL)
MIC [9]: 17.7 µM (≈ 25 µg/mL)
MIC [14]: 17.7 µM (≈ 25 µg/mL)
MIC [15]: 4.47 µM (≈ 6.3 µg/mL)
MIC [16]: 4.47 µM (≈ 6.3 µg/mL)
MIC [17]: 2.84 µM (≈ 4 µg/mL)
MIC [18]: 4.47 µM (≈ 6.3 µg/mL)

CC[C@H](C)[C@H](NC(=O)[C@H](CCCN=C(N)N)NC(=O)[C@H](CCCCN)NC(=O)[C@@H](NC(=O)[C@H](Cc1c[nH]c2ccccc12)NC(=O)[C@H](Cc1c[nH]c2ccccc12)NC(=O)[C@H](Cc1c[nH]c2ccccc12)NC(=O)[C@H](CCCN=C(N)N)NC(=O)[C@@H](N)CC(C)C)[C@@H](C)CC)C(=O)O [LRWWWIKRI]
MIC [19]: 27.3 µM (≈ 37 µg/mL)
MIC [20]: 7.08 µM (≈ 9.6 µg/mL)
MIC [21]: 27.3 µM (≈ 37 µg/mL)
MIC [22]: 13.3 µM (≈ 18 µg/mL)
MIC [23]: 3.39 µM (≈ 4.6 µg/mL)
MIC [24]: 0.811 µM (≈ 1.1 µg/mL)
MIC [25]: 13.3 µM (≈ 18 µg/mL)
MIC [26]: 7.08 µM (≈ 9.6 µg/mL)
MIC [27]: ≥ 109 µM
MIC [28]: 27.3 µM (≈ 37 µg/mL)
MIC [29]: 13.3 µM (≈ 18 µg/mL)
MIC [30]: 27.3 µM (≈ 37 µg/mL)
MIC (Pseudomonas aeruginosa 9): 27.3 µM (≈ 37 µg/mL)
MIC [31]: 3.39 µM (≈ 4.6 µg/mL)
MIC [32]: 13.3 µM (≈ 18 µg/mL)
MIC [33]: 13.3 µM (≈ 18 µg/mL)
MIC [34]: 7.08 µM (≈ 9.6 µg/mL)
MIC [35]: 3.39 µM (≈ 4.6 µg/mL)
MIC [36]: 3.39 µM (≈ 4.6 µg/mL)
MIC [37]: 1.77 µM (≈ 2.4 µg/mL)

CC[C@H](C)[C@H](NC(=O)CNC(=O)[C@H](CCCNC(=N)N)NC(=O)[C@H](Cc1ccc(O)cc1)NC(=O)[C@H](C)NC(=O)[C@@H](NC(=O)[C@H](CCCNC(=N)N)NC(=O)[C@H](Cc1ccccc1)NC(=O)[C@H](C)NC(=O)[C@H](Cc1c[nH]c2ccccc12)NC(=O)[C@@H](N)CCCCN)C(C)C)C(=O)N[C@@H](C)C(=O)N[C@@H](Cc1ccc(O)cc1)C(=O)N[C@@H](CCCNC(=N)N)C(=O)N[C@@H](CCCNC(=N)N)C(=O)N[C@@H](C)C(=O)N[C@@H](CCCNC(=N)N)C(N)=O [KWAFRVAYRGIAYRRAR]
MIC [1]: 1.87 µM (≈ 4 µg/mL)
MIC (Acinetobacter baumannii): 1.87 µM (≈ 4 µg/mL)
MIC [2]: 0.467 µM (≈ 1 µg/mL)
MIC [3]: 7.47 µM (≈ 16 µg/mL)
MIC [4]: 0.467 µM (≈ 1 µg/mL)
MIC [5]: 3.74 µM (≈ 8 µg/mL)
MIC [6]: 7.47 µM (≈ 16 µg/mL)
MIC [7]: 7.47 µM (≈ 16 µg/mL)
MIC [8]: 7.47 µM (≈ 16 µg/mL)
MIC (Klebsiella pneumoniae): > 7.47 µM
MIC [9]: > 7.47 µM
MIC (Pseudomonas aeruginosa): > 7.47 µM
MIC [10]: 7.47 µM (≈ 16 µg/mL)

N=C(N)NCCC[C@H](NC(=O)[C@H](CCCNC(=N)N)NC(=O)[C@@H](N)Cc1ccccc1)C(=O)N[C@@H](Cc1c[nH]c2ccccc12)C(=O)N[C@@H](Cc1c[nH]c2ccccc12)C(=O)N[C@@H](CCCCN)C(=O)N[C@@H](Cc1c[nH]c2ccccc12)C(=O)N[C@@H](Cc1ccccc1)C(=O)N[C@@H](CCCCN)C(=O)O [FRRWWKWFK]
MIC [19]: 11.8 µM (≈ 17 µg/mL)
MIC [20]: 11.8 µM (≈ 17 µg/mL)
MIC [21]: ≥ 93.8 µM
MIC [22]: ≥ 46.5 µM
MIC [23]: 2.92 µM (≈ 4.2 µg/mL)
MIC [24]: 2.92 µM (≈ 4.2 µg/mL)
MIC [25]: 5.77 µM (≈ 8.3 µg/mL)
MIC [26]: 2.92 µM (≈ 4.2 µg/mL)
MIC [27]: ≥ 46.5 µM
MIC [28]: 11.8 µM (≈ 17 µg/mL)
MIC [29]: 1.46 µM (≈ 2.1 µg/mL)
MIC [30]: 2.85 µM (≈ 4.1 µg/mL)
MIC (Pseudomonas aeruginosa 9): 5.77 µM (≈ 8.3 µg/mL)
MIC [31]: 0.695 µM (≈ 1 µg/mL)
MIC [32]: 11.8 µM (≈ 17 µg/mL)
MIC [33]: 2.85 µM (≈ 4.1 µg/mL)
MIC [34]: 0.695 µM (≈ 1 µg/mL)
MIC [35]: 0.695 µM (≈ 1 µg/mL)
MIC [36]: 1.46 µM (≈ 2.1 µg/mL)
MIC [37]: 0.417 µM (≈ 0.6 µg/mL)
